From patent US8536343B2, “Arylamidine derivative, salt thereof and antifungal agent containing those” (Toyama Chemical Co., Ltd., priority 2005, dated 2013)

What was measured:
[1] = target: T1, human CYP2D6 (Homo sapiens, UniProt P10635); assay: Inhibitory effect on CYP2D6; assay type: in vitro ADME; conditions: for Inhibitory effect on CYP2D6 (in words): microsome from insect cells expressing human CYP2D6, 72 to 0.0329 μmol/L
T1 construct: host or cells: insect cells (microsomes)
Procedure: Inhibitory effects of the compound of Example 3, Comparative Compound 1, Comparative Compound 2 and Comparative Compound 3 on human hepatic drug-metabolizing enzyme CYP2D6 were compared. A microsome prepared from insect cells expressing human CYP2D6 was used, and a substrate was 3-[2-(N,N-diethyl-N-methylammonium)ethyl]-7-methoxy-4-methylcoumarin iodide. The reaction was conducted in a phosphate buffer solution (100 mmol/L, pH 7.4) including final concentrations of 20 nmol/L for the enzyme, 1.5 μmol/L for the substrate, 1.55 mmol/L for nicotinamide adenine dinucleotide phosphate oxidized form (NADP+), 3.3 mmol/L for glucose-6-phosphate, 3.3 mmol/L for magnesium chloride and 0.4 Units/mL for glucose-6-phosphate dehydrogenase (G6PDH). The concentrations of the respective compounds in the reaction solution were prepared in a 3-fold dilution series with a final concentration range of 72 to 0.0329 μmol/L. The reaction solutions were incubated at 37° C. for 30 min. Then the reaction was terminated by a 80% acetonitrile solution (containing tris at a final concentration of 0.1 mol/L), and the enzyme activity was determined by measuring fluorescence with wavelength of 465 nm using excitation wavelength of 400 nm. The inhibitory effect was expressed as IC50. Quinidine was used as a positive control.

[2] = Repeated intravenous dose toxicity study in mice (plasma AST, ALT); assay type: in vivo; conditions: ICR male mice, i.v. once daily for 3 days (25 mg/kg or 6.25 mg/kg), day 1 after completion; relative to saline control
Procedure: As Test Compounds, the compound of Example 3, Comparative Compound 2 and Comparative Compound 3 were used.
A repeated intravenous dose toxicity study was conducted using ICR strain male mice (6 week-old, 5 mice/group). The administration solutions were prepared by adding 3-fold molar amount of hydrochloric acid to the respective Test Compounds, and further adding a sterile physiological saline solution. The compounds of Example 3 and Comparative Compound 2, respectively at 25 mg/kg, and Comparative Compound 1 at 6.25 mg/kg were administered into the tail vein once daily for 3 days. To the control group, a sterile physiological saline solution was administered.
On day 1 after the completion of the administration, each mouse was etherized. Blood samples were taken from the abdominal vein using an injection syringe containing heparin as an anticoagulant (Novo-Heparin 1,000 units for injection, Aventis Pharma Ltd.), and the samples were centrifuged (3,300 rpm, 4° C., 10 min; Kubota Model 5900) to obtain the plasma. The blood biochemical tests with respect to aspartate aminotransferase (AST) and alanine aminotransferase (ALT) for the samples were conducted according to the JSCC consensus measuring method. The values for the Test Compounds and Comparative Compounds were calculated based on the values for the control (administration of a sterile physiological saline solution) as 100.

[3] = tested on: Vero cells; assay: Growth inhibition test on Vero cells (XTT); assay type: cell-based; conditions: 50 μg/mL, 3 days culture, XTT absorbance versus control
Procedure: As Test Compounds, the compounds of Example 1 and Example 2 and Comparative Compound 1 were used.
The cytotoxicity of the compounds was evaluated using Vero cells. The respective Test Compounds were dissolved in dimethylsulfoxide (DMSO) to prepare solutions at 10 mg/mL. The solutions were diluted with E′MEM with 10% FBS to a final concentration of 50 μg/mL and placed onto a 96-well plate. The cells were suspended in E′MEM with 10% FBS and seeded onto the 96-well plate at 3000 cells/well and then cultured in a CO2 incubator at 37° C. for 3 days. The growth of Vero cells was evaluated by an assay using 2,3-bis-(2-methoxy-4-nitro-5-sulfophenyl)-5-[(phenylamino)carbonyl]-2H-tetrazolium (inner salt) monosodium salt (“XTT”). Namely, an XTT solution containing 1 mg/mL of XTT and 25 μmol/L of phenazine methosulfate (PMS) was added to each well. After incubating in a CO2 incubator for 2 hours, the absorbance at 450 nm (reference at 655 nm) of the respective wells was measured by a microplate reader. The T/C (%) was calculated from the absorbance ratios of the control (without the Compound) and the respective wells.

[4] = tested on: Aspergillus fumigatus IFM46895; assay: Murine Aspergillus infection model (oral administration); assay type: in vivo; conditions: cyclophosphamide-compromised male mice; 10 mg/kg orally, 7 times; observed 21 days after infection
Procedure: As Test Compounds, the compound of Example 3 and Comparative Compound 1 were used.
Spores of Aspergillus fumigatus IFM46895 were cultured on a potato dextrose agar medium at 30° C. for a week. The recovered spores were suspended in a sterile physiological saline solution containing 0.05% Tween 80, which was then diluted to prepare an inoculum solution.
Male mice (4 week-old, 5 mice/group) were administered intraperitoneally with 200 mg/kg of cyclophosphamide 4 days before infection and 100 mg/kg on the following day after the infection to obtain transient compromised condition. Each 0.2 mL of the inoculum solution was inoculated into the tail vein of each mouse to induce infection (about 1×10^5 CFU/mouse). The Test Compounds were dissolved in a small amount of 0.1 mol/L hydrochloric acid, and the solution was diluted with a sterile distilled water to obtain a 1 mg/mL solution. The solution was administered orally at the dose of 10 mL/kg body weight of mouse (10 mg/kg body weight). The administrations were conducted once 2 hours after the infection and once daily for the following 6 days, totaling 7 times. To a group receiving no Test Compounds, an equal amount of a sterile physiological saline solution was administered. Viability of the mice was observed and recorded for 21 days after infection.

[5] = target: T2, human CYP3A4 (Homo sapiens, UniProt P08684); assay: Inhibitory effect on CYP3A4; assay type: in vitro ADME; conditions: microsome from insect cells expressing human CYP3A4, dibenzylfluorescein, 37° C. 15 min, 72 to 0.0329 μmol/L
T2 construct: host or cells: insect cells (microsomes)
T2 sequence (P08684 whole entry): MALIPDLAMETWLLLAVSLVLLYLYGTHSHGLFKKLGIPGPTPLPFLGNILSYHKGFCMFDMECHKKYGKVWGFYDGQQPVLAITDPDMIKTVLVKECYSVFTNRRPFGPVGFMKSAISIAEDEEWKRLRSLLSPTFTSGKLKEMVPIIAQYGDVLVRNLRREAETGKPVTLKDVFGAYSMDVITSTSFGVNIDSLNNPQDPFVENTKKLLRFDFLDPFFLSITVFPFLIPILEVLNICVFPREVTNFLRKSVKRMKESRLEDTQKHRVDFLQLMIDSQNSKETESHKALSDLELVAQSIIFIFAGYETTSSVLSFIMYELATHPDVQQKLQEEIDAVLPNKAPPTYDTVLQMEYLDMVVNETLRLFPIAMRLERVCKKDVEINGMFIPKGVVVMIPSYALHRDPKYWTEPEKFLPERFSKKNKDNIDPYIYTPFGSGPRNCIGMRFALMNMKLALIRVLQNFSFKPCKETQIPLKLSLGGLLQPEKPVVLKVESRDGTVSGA
Procedure: Inhibitory effects of the compound of Example 3 and Comparative Compound 1 on human hepatic drug-metabolizing enzyme CYP3A4 were compared. A microsome prepared from insect cells expressing human CYP3A4 was used. Dibenzylfluorescein was used as a substrate. The reaction was conducted in a phosphate buffer solution (100 mmol/L, pH 7.4) including final concentrations of 2.5 nmol/L for the enzyme, 1.0 μmol/L for the substrate, 1.55 mmol/L for nicotinamide adenine dinucleotide phosphate oxidized form (NADP+), 3.3 mmol/L for glucose-6-phosphate, 3.3 mmol/L for magnesium chloride and 0.4 Units/mL for glucose-6-phosphate dehydrogenase (G6PDH). The concentrations of the respective compounds in the reaction solution were prepared in a 3-fold dilution series with a final concentration range of 72 to 0.0329 μmol/L. The reaction solutions were incubated at 37° C. for 15 min. Then the reaction was terminated by a 2 mol/L sodium hydroxide aqueous solution, and the solution was further incubated at 37° C. for 2 hours. The enzyme activity was determined by measuring fluorescence with wavelength of 535 nm using excitation wavelength of 485 nm. The inhibitory effect was expressed as IC50. Clotrimazole was used as a positive control.

[6] = target: T3, human CYP2C19 (Homo sapiens, UniProt P33261); assay: Inhibitory effect on CYP2C19; assay type: in vitro ADME; conditions: microsome from insect cells expressing human CYP2C19, dibenzylfluorescein, 37° C. 30 min, 72 to 0.0329 μmol/L
T3 construct: host or cells: insect cells (microsomes)
T3 sequence (P33261 whole entry): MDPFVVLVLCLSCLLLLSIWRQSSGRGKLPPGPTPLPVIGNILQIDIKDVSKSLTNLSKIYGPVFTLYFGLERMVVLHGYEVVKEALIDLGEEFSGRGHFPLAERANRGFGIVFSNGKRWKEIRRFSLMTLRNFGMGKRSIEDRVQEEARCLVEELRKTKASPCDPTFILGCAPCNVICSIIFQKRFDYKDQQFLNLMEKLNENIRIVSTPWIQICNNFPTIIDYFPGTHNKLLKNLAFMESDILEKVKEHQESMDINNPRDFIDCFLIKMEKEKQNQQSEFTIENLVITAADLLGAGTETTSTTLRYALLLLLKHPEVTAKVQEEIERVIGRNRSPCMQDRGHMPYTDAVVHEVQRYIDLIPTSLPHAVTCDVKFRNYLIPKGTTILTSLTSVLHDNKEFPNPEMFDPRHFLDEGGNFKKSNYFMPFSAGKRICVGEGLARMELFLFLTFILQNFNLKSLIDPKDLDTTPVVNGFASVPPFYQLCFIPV
Procedure: Inhibitory effects of the compound of Example 3 and Comparative Compound 1 on human hepatic drug-metabolizing enzyme CYP2C19 were compared. A microsome prepared from insect cells expressing human CYP2C19 was used. Dibenzylfluorescein was used as a substrate. The reaction was conducted in a phosphate buffer solution (100 mmol/L, pH 7.4) including final concentrations of 15 nmol/L for the enzyme, 1.0 μmol/L for the substrate, 1.55 mmol/L for nicotinamide adenine dinucleotide phosphate oxidized form (NADP+), 3.3 mmol/L for glucose-6-phosphate, 3.3 mmol/L for magnesium chloride and 0.4 Units/mL for glucose-6-phosphate dehydrogenase (G6PDH). The concentrations of the respective compounds in the reaction solution were prepared in a 3-fold dilution series with a final concentration range of 72 to 0.0329 μmol/L. The reaction solutions were incubated at 37° C. for 30 min. Then the reaction was terminated by a 2 mol/L sodium hydroxide aqueous solution, and the reactant was further incubated at 37° C. for 2 hours. The enzyme activity was determined by measuring fluorescence with wavelength of 535 nm using excitation wavelength of 485 nm. The inhibitory effect was represented as IC50. Tranylcypromine was used as a positive control.

T1 sequence (P10635 whole entry): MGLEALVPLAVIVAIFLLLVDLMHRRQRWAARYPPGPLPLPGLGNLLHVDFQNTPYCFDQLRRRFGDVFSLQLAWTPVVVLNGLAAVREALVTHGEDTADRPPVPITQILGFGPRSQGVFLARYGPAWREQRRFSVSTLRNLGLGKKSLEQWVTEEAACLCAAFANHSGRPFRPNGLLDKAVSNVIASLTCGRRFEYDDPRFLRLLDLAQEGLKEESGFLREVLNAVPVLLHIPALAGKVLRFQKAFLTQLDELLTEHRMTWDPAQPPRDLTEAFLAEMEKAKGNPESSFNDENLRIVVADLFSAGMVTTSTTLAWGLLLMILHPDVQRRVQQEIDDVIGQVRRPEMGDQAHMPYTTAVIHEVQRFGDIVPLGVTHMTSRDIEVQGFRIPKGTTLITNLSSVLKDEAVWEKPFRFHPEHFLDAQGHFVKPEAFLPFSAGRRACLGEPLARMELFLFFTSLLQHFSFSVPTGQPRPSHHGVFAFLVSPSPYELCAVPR

Structure (SMILES) | Inhibitory effect on CYP2D6 (in words) [1] | ALT (alanine aminotransferase) in plasma [2] | AST (aspartate aminotransferase) in plasma [2] | Cytotoxicity T/C (%) [3] | other results
CCCCCOC(=O)/N=C(\N)c1ccc(OCCCN2CCC(CCCOc3ccc(C(N)NC(=O)OCCCCC)cc3)CC2)cc1 (stereo not shown) [Comparative Compound 3] | inhibited human CYP2D6 | increases | increases |  | 
N/C(=N\C(=O)OCc1ccccc1)c1ccc(OCCCN2CCN(CCCOc3ccc(/C(N)=N/C(=O)OCc4ccccc4)cc3)CC2)cc1 [Comparative Compound 1, reference compound] |  |  |  | 1% | IC50 ([1]; microsome from insect cells expressing human CYP2D6, fluorescent substrate, 37° C. 30 min, 72 to 0.0329 μmol/L): 0.68 µM; mice survived [4]: 20%; IC50 [5]: 4.73 µM; IC50 [6]: 4.36 µM
CC(C)OC(=O)/N=C(\N)c1ccc(OCCCC2CCN(CCCOc3ccc(/C(N)=N/C(=O)OC(C)C)cc3)CC2)cc1 [Example 2, 4-{3-[4-(3-{4-[amino(isopropoxycarbonylimino)methyl]phenoxy}propyl)-1-piperidinyl]propoxy}-N′-(isopropoxycarbonyl)benzamidine] |  |  |  | 100% | 
CCOC(=O)/N=C(\N)c1ccc(OCCCC2CCN(CCCOc3ccc(/C(N)=N/C(=O)OCC)cc3)CC2)cc1 [Comparative Compound 2] | inhibited human CYP2D6 | increases | increases |  | 
CCCOC(=O)/N=C(\N)c1ccc(OCCCC2CCN(CCCOc3ccc(/C(N)=N/C(=O)OCCC)cc3)CC2)cc1 [Example 1, 4-{3-[4-(3-{4-[amino(propoxycarbonylimino)methyl]phenoxy}propyl)-1-piperidinyl]propoxy}-N′-(propoxycarbonyl)benzamidine] |  |  |  | 100% | 
